How the values were obtained:
26S proteasome = assay: Proteasome subcellular localization in cultured cells (immunofluorescence, cell fractionation/Western blot); format: cell-based, human
Method: Cells were incubated for 20 min in fractionation buffer [20 mM HEPES pH 7.3, 10 mM KCl, 5 mM ATP, 5 mM MgCl2, and protease inhibitor cocktail (Roche)], followed by the addition of Digitonin (0.01%). They were then mixed thoroughly and centrifuged at 1,000×g for 5 min. The supernatant was collected as cytosolic fraction, and the pellet was washed with fractionation buffer supplemented with NP-40 (0.05%) and centrifuged, and the pellet (nuclei) was resuspended in fractionation buffer supplemented with sodium deoxycholate (0.5%), followed by its sonication.
Cells were washed twice with ice cold PBS and scraped into lysis buffer (50 mM Tris-HCl, pH 7.4, 130 mM NaCl, 0.5% NP-40) supplemented with freshly added protease inhibitor cocktail, 5 mM ATP, 10 mM iodoacetamide, and 5 mM N-ethyl maleimide. Protein concentration was measured by the BCA assay according to the manufacturer's instructions (Pierce, Rockford, IL). 30 μg of cellular protein were resolved via SDS-PAGE, transferred to a nitrocellulose membrane and immunoblotted with the appropriate antibody.
Cells were seeded on glass cover slips for 36 h. Following the indicated treatments, they were fixed with 4% PFA for 15 min, washed with phosphate-buffered saline (PBS) and incubated in PBS containing 10% goat serum for 1 h at room temperature, followed by 2 h incubation with the indicated primary antibody. Following extensive wash with PBS, the fixed cells were incubated with the relevant secondary antibody for 1 h, washed and mounted. Images were acquired using Zeiss LSM 700 confocal microscope (Zeiss, Oberkochen, Germany). […]

exportin1 = target: T1, exportin1 (Homo sapiens, UniProt O14980); assay: Localization of exportin1 substrates (p65, APC, NES-GFP); format: cell-based; conditions: HeLa cells
T1 construct: endogenous in cells; host or cells: HeLa
Method: Cells were seeded on glass cover slips for 36 h. Following the indicated treatments, they were fixed with 4% PFA for 15 min, washed with phosphate-buffered saline (PBS) and incubated in PBS containing 10% goat serum for 1 h at room temperature, followed by 2 h incubation with the indicated primary antibody. Following extensive wash with PBS, the fixed cells were incubated with the relevant secondary antibody for 1 h, washed and mounted. Images were acquired using Zeiss LSM 700 confocal microscope (Zeiss, Oberkochen, Germany).

Ubiquitin conjugates = Ubiquitin conjugates levels (in-cell Western); format: cell-based, human; conditions: stress, HeLa cells
Method: Cells were seeded in a 96-well plate at a density of 15,000 cells/well. ˜36 h later, cells were treated as described and were visualized live, using high-throughput fluorescence microscopy (IXM-C, Molecular Devices) under a controlled environment (21% O2, 5% CO2, 37° C.). Hoechst 33342 was used to stain nuclei of all cells, and SYTOX™ (Thermo) was used to stain dead cells. Data analysis was performed using the Live/Dead module of the MetaXpress software (Molecular Devices). […] For ubiquitination, the inventors used in-cell Western blotting using an anti-Ub-conj [O. Braten et al., Proc. Natl. Acad. Sci. 113, E4639-47 (2016), and a secondary fluorescent antibody. Intensities were quantified using Li-Cor imager and software (Odyssey).

HeLa cells = assay: Proteomic mass-spectrometric analysis of cellular protein levels; format: cell-based, human; conditions: St.+LMB or St.+YWF vs Cont.
Method: 2-3 mg of cell extract protein in 8 M Urea and 100 mM ammonium bicarbonate, were incubated with DTT (2.8 mM; 30 min at 60° C.), modified with iodoacetamide (8.8 mM; 30 min at room temperature in the dark), and digested (overnight at 37° C.) with modified trypsin (Promega; 1:50 enzyme-to-substrate ratio) in 2 M Urea and 25 mM ammonium bicarbonate. Additional second trypsinization was carried out for 4 h. The tryptic peptides were desalted using Sep-Pak C18 (Waters) and dried. 10 μg of protein were used for proteome analysis as described under Mass spectrometry.
Tryptic peptides were analyzed by LC-MS/MS using a Q Exactive plus mass spectrometer (Thermo Fisher Scientific) fitted with a capillary HPLC (easy nLC 1000, Thermo). […]
The mass spectrometry raw data were analyzed by the MaxQuant software (version 1.4.1.2, http://www.maxquant.org) for peak picking and quantification. […] The MaxQuant software was used for label-free semi-quantitative analysis [based on extracted ion currents (XICs) of peptides], enabling quantification from each LC/MS run for each peptide identified in any of the experiments. In samples that were SILAC-labeled, quantification was also carried out using the MaxQuant software. […]

proteasome = assay: Mass spectrometric analysis of proteasome sub-complexes' composition (assembly); format: cell-based, human; conditions: starvation plus substance
Method: Analysis of proteasome assembly and sub-complex composition was performed using the MCP20 antibody against the α6 proteasome subunit, as previously described using the MCP21 antibody against α2 [B. Fabre et al., Mol. Cell. Proteomics 12, 687-699 (2013)]. Briefly, following the indicated treatments, cell lysates were immunoprecipitated using the α6 antibody, and the precipitates were subjected to proteomic mass spectrometry. Intensities of the different proteasomal subunits were normalized according to the median of intensities measured for all 20S subunits. Ratios were calculated for each condition relative to untreated cells (control). The color scale represents Log 2 fold-change.

T1 sequence (O14980 whole entry): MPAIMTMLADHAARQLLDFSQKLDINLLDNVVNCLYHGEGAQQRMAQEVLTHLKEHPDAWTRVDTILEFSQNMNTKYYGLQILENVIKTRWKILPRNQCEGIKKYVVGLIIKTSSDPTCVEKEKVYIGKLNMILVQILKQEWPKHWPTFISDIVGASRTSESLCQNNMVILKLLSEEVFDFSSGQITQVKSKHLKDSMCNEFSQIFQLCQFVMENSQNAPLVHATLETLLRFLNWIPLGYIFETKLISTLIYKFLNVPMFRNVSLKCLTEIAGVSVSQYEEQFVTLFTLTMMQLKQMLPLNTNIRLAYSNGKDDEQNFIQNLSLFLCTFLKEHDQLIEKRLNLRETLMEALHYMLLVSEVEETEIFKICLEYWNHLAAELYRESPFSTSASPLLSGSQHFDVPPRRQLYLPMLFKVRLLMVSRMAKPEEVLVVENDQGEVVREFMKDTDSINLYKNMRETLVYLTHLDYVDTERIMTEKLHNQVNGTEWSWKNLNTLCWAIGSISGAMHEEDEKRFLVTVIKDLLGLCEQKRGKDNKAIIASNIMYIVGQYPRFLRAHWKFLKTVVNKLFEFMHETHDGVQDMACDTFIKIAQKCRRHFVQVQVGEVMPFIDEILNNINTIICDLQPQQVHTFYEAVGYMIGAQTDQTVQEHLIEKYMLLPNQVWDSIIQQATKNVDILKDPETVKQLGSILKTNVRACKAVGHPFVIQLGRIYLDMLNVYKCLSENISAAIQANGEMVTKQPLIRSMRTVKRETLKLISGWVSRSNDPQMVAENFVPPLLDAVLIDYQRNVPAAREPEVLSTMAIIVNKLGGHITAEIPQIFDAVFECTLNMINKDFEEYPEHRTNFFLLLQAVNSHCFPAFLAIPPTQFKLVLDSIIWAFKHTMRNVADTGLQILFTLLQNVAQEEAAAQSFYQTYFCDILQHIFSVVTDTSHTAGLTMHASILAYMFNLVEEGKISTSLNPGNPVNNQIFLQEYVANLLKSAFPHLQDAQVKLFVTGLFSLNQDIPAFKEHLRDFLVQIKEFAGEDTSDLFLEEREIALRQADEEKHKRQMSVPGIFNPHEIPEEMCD

Structure (SMILES): CCC(=C/[C@H](C)C/C=C/C(C)=C/[C@@H](C)C(=O)[C@@H](C)[C@H](O)[C@@H](C)C/C(C)=C/C(=O)O)/C=C/[C@@H]1OC(=O)C=C[C@@H]1C [Leptomycin B]
- proteasome translocation from the nucleus to the cytosol (26S proteasome; amino acid starvation, substance added to starvation medium): inhibition of the translocation
- proteasome localization (26S proteasome; non-stressed / well-fed cells, complete medium): nuclear accumulation of the proteasome
- nuclear export/localization of exportin1 substrates p65 subunit of NF-κB and APC (exportin1): inhibited nuclear export of two known substrates of exportin1
- localization of GFP fused to a nuclear export signal (NES) (exportin1; 8 h): nuclear accumulation of GFP fused to a nuclear export signal (NES)
- degradation and depletion of ubiquitin adducts (Ubiquitin conjugates): inhibited degradation and depletion of ubiquitin adducts
- accelerated degradation of cellular proteins upon starvation (HeLa cells): accelerated degradation was prevented
- effect of stress on proteasome assembly (20S and 19S sub-complexes) (proteasome): did not reverse the effect of stress on proteasome assembly
